# Where two headings read alike, the source gives them in different places.
# Experiments:
# [1] = Microcentrifuge dissolution test; type: physicochemical
# [2] = In vitro membrane permeation test (maximum flux of drug across membrane); conditions: 100 μgA/mL; for Maximum Flux of Drug 5: Table 15, feed 0.5 wt % NaTC/POPC, permeate 60 wt % decanol in decane
# Description: An Accurel® PP 1E microporous polypropylene membrane was obtained from Membrana GmbH (Wuppertal, Germany). The membrane was washed in isopropyl alcohol and rinsed in methanol in a sonicating bath for one minute at ambient temperature, and then allowed to air dry at ambient temperature. The feed side of the membrane was then plasma-treated to render it hydrophilic by placing a sample of the membrane in a plasma chamber. The atmosphere of the plasma chamber was saturated with water vapor at a pressure of 550 mtorr. A plasma was then generated using radio frequency (RF) power inductively coupled into the chamber via annular electrodes at a power setting of 50 Watts for 45 seconds. The contact angle of a drop of water placed on the surface of the plasma-treated membrane was about 40°. The contact angle of a drop of water placed on the permeate side of the same membrane was greater than about 110°.
# A permeate reservoir was formed by capping the open end of a glass tube having an inside diameter of about 2 54 cm by gluing a sample of the plasma-treated membrane to the tube using an epoxy-based glue (LOCTITE® E-30CL HYSOL® from Henkel Loctite Corp, Rocky HUI, Conn.). The membrane was oriented so that its feed side was on the outside of the permeate reservoir and its permeate side was on the inside of the reservoir. The effective membrane area of the membrane capping the permeate reservoir was about 4.9 cm^2. The permeate reservoir was placed into a glass feed reservoir. The feed reservoir was equipped with a magnetic stir bar and the reservoir was placed on a stir plate and the stir rate was set to 100 rpm during the test. The apparatus was placed into a chamber maintained at 37° C. for the duration of the test.
# To this was added 5 mL of an aqueous solution designed to model the fed state, consisting of a Phosphate Buffered Solution (PBS) containing 29.2 mM or 2 wt % sodium taurocholic acid and 5.6 mM of 1-palmitoyl-2-oleyl-sn-glycero-3-phosphocholine (NaTC/POPC). […] The feed solution was mixed using a vortex mixer for 1 minute. Before the membrane contacted the feed solution, 5 mL of 20 wt % decanol in decane was placed into the permeate reservoir. Time zero in the test was when the membrane was placed in contact with the feed solution. A 50 μL aliquot of the permeate solution was collected at 20, 40, 60, 90, 120, 180, 240, and 350 minutes. Samples were then diluted in 250 μL isopropyl alcohol and analyzed using HPLC.
# The maximum flux of drug across the membrane (in units of μgA/cm^2-min) was determined by performing a least-squares fit to the data to obtain the maximum slope, multiplying the slope by the permeate volume (5 mL), and dividing by the membrane area (4.9 cm^2).
# The maximum flux of drug across the membrane (in units of μgA/cm^2-min) was determined by estimating the tangent to the concentration versus time curve at time 0.
# To this was added 5 mL of the Model Fasted Duodenum (MFD) solution consisting of Phosphate Buffered Saline (PBS) solution containing 7.3 mM sodium taurocholic acid and 1.4 mM of 1-palmitoyl-2-oleyl-sn-glycero-3-phosphocholine (0.5% NaTC/POPC). […] The feed solutions were each mixed using a vortex mixer for 1 minute. Before the membrane contacted the feed solutions, 5 mL of 20 wt % decanol in n-decane was placed into the permeate reservoir. Time zero in the test was when the membrane was placed in contact with the feed solution. […] Samples were then diluted in 250 μL isopropyl alcohol and analyzed using HPLC.
# [3] = Aqueous solubility of the drugs; type: physicochemical; conditions: aqueous medium (not specified further)
# [4] = Table 18, Drug 1, PBS pH 6.5, 37° C., 1000 μgA/mL
# [5] = Table 20, Drug 1, microcentrifuge dissolution test described above
# [6] = Table 19, Drug 2, MFD solution, 1000 μgA/mL
compound,measurement,setting,value
CCOC(=O)N1c2ccc(C(F)(F)F)cc2[C@@H](N(Cc2cc(C(F)(F)F)cc(C(F)(F)F)c2)C(=O)OC)C[C@H]1CC [Control C1],AUC90,"[1]; Table 11, Drug 1, PBS pH 6.5, 37° C., area under the curve from 0 to 90 minutes",<88 min · μgA/mL
same,MDC90,"[1]; Table 11, Drug 1, PBS pH 6.5, 37° C., maximum drug concentration between 0 and 90 minutes",<1 μgA/mL
same,AUC90,[1]; [4],<100 min · μgA/mL
same,MDC90,[1]; [4],<1 μgA/mL
same,AUC90,[1]; [5],<100 min · μgA/mL
same,MDC90,[1]; [5],<1 μgA/mL
same,Maximum Flux of Drug 1,120 μg/mL,0.091 μgA/cm^2-min
same,Maximum Flux of Drug 1,120 μgA/mL,0.08 μgA/cm^2-min
O=C(NOCC1CC1)c1ccc(F)c(F)c1Nc1ccc(I)cc1Cl [Control C2],AUC90,[1]; [6],4200 min · μgA/mL
same,MDC90,[1]; [6],101 μgA/mL
O=C1Cc2cc(CCN3CCN(c4nsc5ccccc45)CC3)c(Cl)cc2N1 [Control C4],Maximum Drug Flux,"[2]; Table 21, Drug 4, feed 0.5% NaTC/POPC (MFD), permeate 60 wt % decanol in n-decane",0.16 μgA/cm^2-min
O=C1Cc2cc(CCN3CCN(c4nsc5ccccc45)CC3)c(Cl)cc2N1 [Control C5],Maximum Flux of Drug 5,[2],0.099 μgA/cm^2-min
O=C1Cc2cc(CCN3CCN(c4nsc5ccccc45)CC3)c(Cl)cc2N1 [Control C6],Maximum Flux of Drug 5,[2],0.07 μgA/cm^2-min
"CCOC(=O)N1c2ccc(C(F)(F)F)cc2[C@@H](N(Cc2cc(C(F)(F)F)cc(C(F)(F)F)c2)C(=O)OC)C[C@H]1CC [Drug 1, [2R,4S]-4[(3,5-bis-trifluoromethyl-benzyl)-methoxycarbonyl-amino]-2-ethyl-6-trifluoromethyl-3,4-dihydro-2H-quinoline-1-carboxylic acid ethyl ester]",solubility,[3],< 0.1 µg/mL
O=C1Cc2cc(CCN3CCN(c4nsc5ccccc45)CC3)c(Cl)cc2N1 [Drug 4],solubility,[3]; free base form,< 0.1 µg/mL
same,solubility,[3]; hydrochloride salt form,~10 µg/mL

# Reference: patent US8617604B2, “Pharmaceutical compositions with enhanced performance” (Bend Research, Inc., priority 2005, dated 2013)
